Usually EC50 stands for the concentration that produces a half-maximal response. A word on the IC50: it is the concentration at which inhibition is half-maximal.

Consider two molecules from paper PMC9146934 (Membranes, 2022).

Values joined by “and” are separate entries in the source; they are usually repeats but may differ in a detail not shown here. Equal entries are not always repeated.

One assay concerns the target T1, Ap-RDL1 GABAr (Acyrthosiphon pisum, UniProt A0A385J708, C18R).
T1 sequence (A0A385J708 33-567 C18R): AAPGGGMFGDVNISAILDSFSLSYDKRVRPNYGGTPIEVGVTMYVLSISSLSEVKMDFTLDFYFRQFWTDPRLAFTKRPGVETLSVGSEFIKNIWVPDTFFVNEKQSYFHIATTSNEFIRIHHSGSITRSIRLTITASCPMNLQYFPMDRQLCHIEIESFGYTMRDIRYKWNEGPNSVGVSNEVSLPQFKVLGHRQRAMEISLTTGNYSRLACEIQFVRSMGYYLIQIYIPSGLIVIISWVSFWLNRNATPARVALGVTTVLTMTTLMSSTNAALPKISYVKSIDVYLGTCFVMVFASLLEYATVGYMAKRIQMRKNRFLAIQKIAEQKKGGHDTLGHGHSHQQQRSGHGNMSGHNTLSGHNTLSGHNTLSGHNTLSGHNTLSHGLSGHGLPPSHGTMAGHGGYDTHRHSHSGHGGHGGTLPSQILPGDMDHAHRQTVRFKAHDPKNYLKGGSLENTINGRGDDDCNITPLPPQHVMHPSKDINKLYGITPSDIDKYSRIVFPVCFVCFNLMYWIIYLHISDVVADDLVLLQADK
Kind of assay: Two-electrode voltage-clamp of GABA-induced currents, Ap-RDL1 expressed in Xenopus laevis oocytes. The format is cell-based. As to the method: (§1) cRNAs were in vitro synthesized from linearized plasmids using the M-message M-machine transcription kit (Thermo Fisher, Waltham, MA USA) following the manufacturer’s instructions. The cRNA concentration was adjusted to 1 µg/µL. Preparation and injection of X. laevis oocytes were completed as previously described. The oocytes were injected with 30 nL of a solution containing the cRNA of interest. Injected oocytes were maintained at 19 °C in a survival solution containing (in mM): NaCl, 96; KCl, 2; CaCl2, 1.8; MgCl2, 1; Hepes, 5; Na-pyruvate, 2.5; and gentamycin, 0.025, pH = 7.2 with NaOH, renewed daily.
(§2) Expressed currents were recorded at room temperature using the two-electrode voltage-clamp method 1–3 days after injection. Electrodes were pulled from borosilicate glass (Warner, ref GC150T10) and filled with 3 M KCl. […] Drugs were applied using a gravity-driven perfusion system at a speed of 2 mL/min.
(§3) Oocytes were perfused with the following ND solution (in mM): NaCl, 96; KCl, 3; CaCl2, 0.5; MgCl2, 1; HEPES, 5, with pH set at 7.4 with NaOH at ~1 mL/min. The reversal potential of the Ap-RDL receptor was measured in solutions containing (in mM): NaCl, Na-acetate or TEACl (tetraethylammonium chloride), 100; HEPES, 5 with pH set at 7.4, with NaOH or TEAOH. […] Fipronil or picrotoxin were dissolved at the final concentrations from stock solutions in DMSO (dimethylsulfoxide) at 200 and 10 mM, respectively. The final DMSO concentration was always less than 0.2%.
(§4) With Rel.Cur. the current amplitude at each concentration relative to the current recorded in the absence of antagonist; IC50, the concentration for half-maximum inhibition, log ([Inhib]) the logarithm of the inhibitor concentration, and p a slope factor.
(§5) With t, the time of the recording; Rel.Cur., the current amplitude at each concentration relative to the current recorded in the absence of antagonist; Amp, the amplitude of the exponential, Tau Block, the time constant of the exponential, and R the residual non-inhibited current at the steady-state of the effects. The relative block (Rel.B) is estimated as 1-R expressed in %.
On the technique in general: In two-electrode clamp one electrode senses voltage and the other passes current.

In a further assay the target is T2, Am-RDL GABAr (Apis mellifera, UniProt A0A8U0Y4W2).
T2 sequence (A0A8U0Y4W2 19-476): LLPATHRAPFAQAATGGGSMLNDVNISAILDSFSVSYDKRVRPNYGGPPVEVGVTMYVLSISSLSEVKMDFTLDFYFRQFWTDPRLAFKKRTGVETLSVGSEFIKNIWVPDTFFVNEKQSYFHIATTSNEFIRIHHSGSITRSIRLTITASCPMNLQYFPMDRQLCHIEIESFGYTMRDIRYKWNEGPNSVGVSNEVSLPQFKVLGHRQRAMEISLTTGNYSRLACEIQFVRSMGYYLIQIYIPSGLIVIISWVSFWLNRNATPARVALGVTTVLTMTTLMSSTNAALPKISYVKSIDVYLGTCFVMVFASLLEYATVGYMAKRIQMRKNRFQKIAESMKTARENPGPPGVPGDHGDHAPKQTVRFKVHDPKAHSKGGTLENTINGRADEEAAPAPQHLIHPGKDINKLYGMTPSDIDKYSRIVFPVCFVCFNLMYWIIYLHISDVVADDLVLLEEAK
In words: Two-electrode voltage-clamp of GABA-induced currents, Am-RDL expressed in Xenopus laevis oocytes. The format is cell-based. On the procedure: as §1, §2, §3, §4, §5

The target in another assay is T3, Vd-RDL1 GABAr (Varroa destructor, UniProt A0A343W7T5).
T3 sequence (A0A343W7T5 35-585): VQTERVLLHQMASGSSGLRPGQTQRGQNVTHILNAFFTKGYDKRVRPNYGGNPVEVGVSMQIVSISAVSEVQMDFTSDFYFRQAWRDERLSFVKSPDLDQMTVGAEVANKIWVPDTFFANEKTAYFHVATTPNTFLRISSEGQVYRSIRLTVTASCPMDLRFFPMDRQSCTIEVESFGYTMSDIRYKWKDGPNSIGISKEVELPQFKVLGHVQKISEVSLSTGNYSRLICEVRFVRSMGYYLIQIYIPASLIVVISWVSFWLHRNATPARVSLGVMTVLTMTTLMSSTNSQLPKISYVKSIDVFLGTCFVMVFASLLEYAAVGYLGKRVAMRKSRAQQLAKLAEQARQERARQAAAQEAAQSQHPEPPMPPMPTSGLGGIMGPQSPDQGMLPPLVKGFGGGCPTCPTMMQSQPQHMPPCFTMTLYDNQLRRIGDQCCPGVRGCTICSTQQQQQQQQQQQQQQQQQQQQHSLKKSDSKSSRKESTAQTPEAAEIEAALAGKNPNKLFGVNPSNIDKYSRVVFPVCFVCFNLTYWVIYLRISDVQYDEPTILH
Kind of assay: Two-electrode voltage-clamp of GABA-induced currents, Vd-RDL1 expressed in Xenopus laevis oocytes. The format is cell-based. As to the method:
as §1, §2, §3, §4, §5

The next assay concerns the target T4, Vd-RDL2 GABAr (Varroa destructor, UniProt A0A3G3MDS2).
T4 sequence (A0A3G3MDS2 20-661): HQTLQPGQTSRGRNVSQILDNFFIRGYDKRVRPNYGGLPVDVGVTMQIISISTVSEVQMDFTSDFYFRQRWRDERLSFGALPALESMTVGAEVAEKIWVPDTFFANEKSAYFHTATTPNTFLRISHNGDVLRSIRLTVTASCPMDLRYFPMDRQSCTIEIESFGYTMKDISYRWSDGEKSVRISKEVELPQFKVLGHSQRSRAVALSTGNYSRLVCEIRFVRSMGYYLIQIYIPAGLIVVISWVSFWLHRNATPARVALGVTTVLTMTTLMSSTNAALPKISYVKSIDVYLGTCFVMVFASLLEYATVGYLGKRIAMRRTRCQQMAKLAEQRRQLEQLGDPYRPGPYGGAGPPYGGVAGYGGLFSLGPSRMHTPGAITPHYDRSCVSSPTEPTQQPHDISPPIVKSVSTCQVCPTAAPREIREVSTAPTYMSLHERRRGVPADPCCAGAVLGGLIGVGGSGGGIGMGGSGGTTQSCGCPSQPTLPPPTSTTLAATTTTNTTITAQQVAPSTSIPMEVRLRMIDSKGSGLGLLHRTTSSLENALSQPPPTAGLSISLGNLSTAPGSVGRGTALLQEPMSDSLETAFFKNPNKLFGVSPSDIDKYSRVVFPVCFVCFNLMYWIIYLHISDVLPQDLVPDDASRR
Kind of assay: Two-electrode voltage-clamp of GABA-induced currents, Vd-RDL2 expressed in Xenopus laevis oocytes. The format is cell-based. On the procedure: as §1, §2, §3, §4, §5

The target of another assay is T5, Vd-RDL3 GABAr (Varroa destructor, UniProt A0A343W7T7).
T5 sequence (A0A343W7T7 31-591): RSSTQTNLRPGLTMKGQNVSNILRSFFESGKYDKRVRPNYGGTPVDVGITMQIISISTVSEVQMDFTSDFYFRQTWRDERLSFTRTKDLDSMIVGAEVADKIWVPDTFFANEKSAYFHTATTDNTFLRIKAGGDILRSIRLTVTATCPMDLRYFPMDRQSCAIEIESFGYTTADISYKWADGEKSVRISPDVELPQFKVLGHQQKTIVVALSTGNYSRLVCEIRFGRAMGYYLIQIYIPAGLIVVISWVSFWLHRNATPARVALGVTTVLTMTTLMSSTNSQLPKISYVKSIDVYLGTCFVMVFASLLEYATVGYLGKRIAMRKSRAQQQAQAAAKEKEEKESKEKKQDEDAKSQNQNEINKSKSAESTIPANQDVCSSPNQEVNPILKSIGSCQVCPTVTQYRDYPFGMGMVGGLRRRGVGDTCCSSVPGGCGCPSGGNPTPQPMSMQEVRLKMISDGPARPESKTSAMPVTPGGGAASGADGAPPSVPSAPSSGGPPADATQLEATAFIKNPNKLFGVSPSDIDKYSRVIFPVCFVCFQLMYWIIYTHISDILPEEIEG
In words: Two-electrode voltage-clamp of GABA-induced currents, Vd-RDL3 expressed in Xenopus laevis oocytes. The format is cell-based. As to the method: as §1, §2, §3, §4, §5

Assay [1] has as its target T6, Hs-α2β2γ2 GABA-A receptor (Homo sapiens, UniProt P18507+P47869+P47870).
T6 construct: expressed in transfected cells; host or cells: Xenopus laevis oocytes (cRNA injection)
Kind of assay: cell-based. The class given is cell-based. As to the method: as §1, §2, §3, §4, §5

Assay [2] deals with T7, Hs-α4β2γ2 GABA-A receptor (Homo sapiens, UniProt P18507+P47870+P48169).
T7 construct: expressed in transfected cells; host or cells: Xenopus laevis oocytes (cRNA injection; α4 in pcDNA3.1(+))
Kind of assay: Two-electrode voltage-clamp of GABA-induced currents, Hs-α4β2γ2 expressed in Xenopus laevis oocytes. As to conditions: logistic fit. The class given is cell-based. On the procedure:
as §1, §2, §3, §4
With t, the time of the recording; Rel.Cur., the current amplitude at each concentration relative to the current recorded in the absence of antagonist; Amp, the amplitude of the exponential, Tau Block, the time constant of the exponential, and R the residual non-inhibited current at the steady-state of the effects. […]

The subject of the next assay is A. pisum RDL1ad. The following applies: read-out: IC50 for fipronil; cited from earlier work.
A further assay has as its system A. pisum RDL1bd. The following applies: text prints the receptor as Ap-RDL1; read-out: IC50 for fipronil; cited from earlier work.
The subject of a further assay is A. pisum RDL2b. As to conditions: text prints the receptor as Ap-RDL2; read-out: IC50 for fipronil; cited from earlier work.
The test system of another assay is Hs-α1β2γ2. The following applies: read-out: IC50 for fipronil; cited from earlier work.
The mark [3] stands for this setting: peak current, oocytes clamped at −60 mV.
[4] abbreviates: IC50 (inhibition of the GABA response), GABA 100 µM, inhibitor co-applied.

T6 sequence (P47869 29-451): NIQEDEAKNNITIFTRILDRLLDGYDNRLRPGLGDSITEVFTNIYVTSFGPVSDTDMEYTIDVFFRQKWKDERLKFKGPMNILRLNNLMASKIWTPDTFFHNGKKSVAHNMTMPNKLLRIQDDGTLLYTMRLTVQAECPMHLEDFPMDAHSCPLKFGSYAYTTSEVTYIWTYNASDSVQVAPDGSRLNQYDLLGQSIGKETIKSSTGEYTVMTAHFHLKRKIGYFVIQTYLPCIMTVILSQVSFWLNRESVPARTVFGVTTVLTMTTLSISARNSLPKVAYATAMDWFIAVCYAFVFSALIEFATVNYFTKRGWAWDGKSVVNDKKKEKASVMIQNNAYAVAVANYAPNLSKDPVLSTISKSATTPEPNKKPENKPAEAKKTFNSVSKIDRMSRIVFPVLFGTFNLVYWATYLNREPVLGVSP
T6 sequence (P47870 25-512 limits assumed): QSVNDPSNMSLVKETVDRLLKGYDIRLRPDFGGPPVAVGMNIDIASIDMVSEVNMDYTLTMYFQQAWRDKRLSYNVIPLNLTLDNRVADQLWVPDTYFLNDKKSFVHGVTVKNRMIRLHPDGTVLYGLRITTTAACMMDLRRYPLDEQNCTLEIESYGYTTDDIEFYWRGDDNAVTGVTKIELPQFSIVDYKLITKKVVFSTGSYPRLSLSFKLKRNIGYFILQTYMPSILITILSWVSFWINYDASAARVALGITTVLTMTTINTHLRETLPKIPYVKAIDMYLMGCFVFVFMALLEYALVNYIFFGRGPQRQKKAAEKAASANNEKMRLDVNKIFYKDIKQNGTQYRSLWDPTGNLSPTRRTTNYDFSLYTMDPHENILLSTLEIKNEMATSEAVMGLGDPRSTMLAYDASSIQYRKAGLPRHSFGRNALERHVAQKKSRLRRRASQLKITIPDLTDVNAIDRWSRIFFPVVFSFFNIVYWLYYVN
T6 sequence (P18507 40-475): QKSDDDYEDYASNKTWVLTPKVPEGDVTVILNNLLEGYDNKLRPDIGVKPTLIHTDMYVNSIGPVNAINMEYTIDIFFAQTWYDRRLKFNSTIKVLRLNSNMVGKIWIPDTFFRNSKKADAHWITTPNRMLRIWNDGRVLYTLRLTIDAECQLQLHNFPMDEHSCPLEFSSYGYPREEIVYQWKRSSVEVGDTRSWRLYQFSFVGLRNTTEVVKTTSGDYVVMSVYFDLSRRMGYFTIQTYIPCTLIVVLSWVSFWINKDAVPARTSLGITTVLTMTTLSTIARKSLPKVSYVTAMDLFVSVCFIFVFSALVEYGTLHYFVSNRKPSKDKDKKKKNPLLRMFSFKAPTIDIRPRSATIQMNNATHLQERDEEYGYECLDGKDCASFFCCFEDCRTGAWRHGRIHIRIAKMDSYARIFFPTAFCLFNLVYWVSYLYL
T7 sequence (P48169 36-554): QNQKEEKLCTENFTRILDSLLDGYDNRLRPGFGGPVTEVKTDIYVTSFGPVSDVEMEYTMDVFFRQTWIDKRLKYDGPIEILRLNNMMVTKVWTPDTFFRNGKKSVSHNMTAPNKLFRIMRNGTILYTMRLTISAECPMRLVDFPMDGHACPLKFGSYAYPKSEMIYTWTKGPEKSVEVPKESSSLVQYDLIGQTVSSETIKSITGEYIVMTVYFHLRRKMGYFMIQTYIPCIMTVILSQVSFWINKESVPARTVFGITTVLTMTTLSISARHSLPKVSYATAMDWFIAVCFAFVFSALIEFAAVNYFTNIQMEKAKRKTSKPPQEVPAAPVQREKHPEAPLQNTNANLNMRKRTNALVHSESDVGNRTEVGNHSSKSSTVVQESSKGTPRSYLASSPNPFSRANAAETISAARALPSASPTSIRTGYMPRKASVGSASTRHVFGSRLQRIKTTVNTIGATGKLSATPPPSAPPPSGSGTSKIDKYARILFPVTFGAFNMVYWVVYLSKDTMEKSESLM
T7 sequence (P47870 25-512 limits assumed): as the sequence (P47870 25-512 limits assumed) above
T7 sequence (P18507 40-475): as the sequence (P18507 40-475) above

Regarding `NCCCC(=O)O` [GABA, γ-aminobutyric acid], the “p (slope factor) of GABA dose–response curve” value on Ap-RDL1 GABAr (logistic fit) is recorded as 2.4 ± 0.3; on Am-RDL GABAr (logistic fit), 2.1 ± 0.2; on Vd-RDL1 GABAr (logistic fit), 2.3 ± 0.2; on Vd-RDL2 GABAr (logistic fit) it was 1.8 ± 0.2; at Vd-RDL3 GABAr (logistic fit), 2.3 ± 0.1; in assay [1] it was 1.4 ± 0.1. Besides, the “p (slope factor) of GABA dose–response curve” value in [2] was 1.4 ± 0.2. The results for the EC50 on Am-RDL GABAr, on Vd-RDL1 GABAr (setting [3]) and at Vd-RDL3 GABAr (setting [3]) were 19300 ± 3500 nM, 269000 ± 41000 nM and 43100 ± 10400 nM, respectively.

With `N#Cc1nn(-c2c(Cl)cc(C(F)(F)F)cc2Cl)c(N)c1[S+]([O-])C(F)(F)F` (stereo not drawn) [fipronil], the IC50 on Ap-RDL1 GABAr (setting [4]) was 310 nM and 300 to 3000 nM; on Am-RDL GABAr it was 70 ± 200 nM; at Vd-RDL1 GABAr, more than 500000 nM; against Vd-RDL2 GABAr (setting [4]), 770 nM and 300 to 3000 nM; against Vd-RDL3 GABAr it was 3640 ± 1740 nM; in assay [1] (setting [4]), 1880 nM and 300 to 3000 nM and 1800 nM. Moreover, the IC50 was 640 ± 150 nM in the assay with A. pisum RDL1ad, 180 ± 100 nM with A. pisum RDL1bd, 720 ± 200 nM in the assay on A. pisum RDL2b and 1100 ± 200 nM in the assay with Hs-α1β2γ2. The “block of GABA response by fipronil” value at Vd-RDL1 GABAr (fipronil 30 µM, GABA 100 µM) is on record as “almost no block”.
